In ChEMBL document CHEMBL6103652, “Niacin Ester Derivative of Brefeldin A as a Potential Dual-Target Arf1/BMX Inhibitor for Bladder Cancer” (J Nat Prod, 2025):

Legend:
[1] = system: T-24; assay: Antiproliferative activity against human T24 cells assessed as inhibition of cell proliferation at 0.25 uM incubated for 72 to 120 hrs by MTT assay relative to control; type: functional; settings: time 72-120 hrs
[2] = system: Huh-7; assay: Antiproliferative activity against human Huh-7 cells assessed as inhibition of cell proliferation measured after 72 hrs by MTT assay; type: functional, cell-based; settings: Huh-7, 72 h
[3] = system: A549; assay: Antiproliferative activity against human A549 cells assessed as inhibition of cell proliferation measured after 72 hrs by MTT assay; type: functional, cell-based; settings: A549, 72 h
[4] = system: HT-29; assay: Antiproliferative activity against human HT-29 cells assessed as inhibition of cell proliferation measured after 72 hrs by MTT assay; type: functional, cell-based; settings: HT-29, 72 h
[5] = Antiproliferative activity against […] MB49 cells assessed as inhibition of cell proliferation measured after 72 hrs by MTT assay; type: functional, cell-based; settings: MB49, 72 h
[6] = system: L1210; assay: Antiproliferative activity against mouse L1210 cells assessed as inhibition of cell proliferation measured after 72 hrs by MTT assay; type: functional, cell-based; settings: L1210, 72 h
[7] = system: HCT-116; assay: Antiproliferative activity against human HCT-116 cells assessed as inhibition of cell proliferation measured after 72 hrs by MTT assay; type: functional, cell-based; settings: HCT-116, 72 h
[8] = system: T-24; assay: Antiproliferative activity against human T24 cells assessed as inhibition of cell proliferation measured after 72 hrs by MTT assay; type: functional, cell-based; settings: T-24, 72 h
[9] = Cytotoxicity against human LO2 cells measured after 72 hrs by MTT assay; type: toxicity, cell-based, L02
[10] = system: Bel-7402; assay: Antiproliferative activity against human Bel-7402 cells assessed as inhibition of cell proliferation measured after 72 hrs by MTT assay; type: functional, cell-based; settings: Bel-7402, 72 h

Structure (SMILES) | inhibition at 0.25 µM [1] [%] | IC50 [2] [nM] | IC50 [3] [nM] | IC50 [4] [nM] | IC50 [5] [nM] | IC50 [6] [nM] | IC50 [7] [nM] | IC50 [8] [nM] | IC50 at 72 h [9] [nM] | IC50 [10] [nM]
C[C@H]1CCC/C=C/[C@@H]2C[C@H](OC(=O)c3cccnc3)C[C@H]2[C@H](O)/C=C/C(=O)O1 | < 40 | – | – | – | – | – | – | – | – | –
COc1cccc2c1C(=O)c1c(O)c3c(c(O)c1C2=O)C[C@@](O)(C(=O)CO)C[C@@H]3O[C@H]1C[C@H](N)[C@H](O)[C@H](C)O1 [DOXORUBICIN] | – | 620 | 440 | 420 | > 1000 | < 1000 | < 1000 | 250 | – | –
C[C@H]1CCC/C=C/[C@@H]2C[C@H](O)C[C@H]2[C@H](O)/C=C/C(=O)O1 [BREFELDIN A] | – | 180 | 60 | 70 | 2160 | 1570 | 100 | 80 | 140 | 120
C[C@H]1CCC/C=C/[C@@H]2C[C@H](OC(=O)c3cccnc3)C[C@H]2[C@H](OC(=O)c2cccnc2)/C=C/C(=O)O1 | < 40 | – | – | – | – | – | – | – | – | –
